Tests used:
[1] = Antioxidant activity assessed as DPPH free radical scavenging activity at 0.25 mM relative to untreated control; assay type: functional
[2] = Antioxidant activity assessed as DPPH free radical scavenging activity at 0.5 mM relative to untreated control; assay type: functional
Cholinesterase [3] = molecular target: T1, Cholinesterase (Homo sapiens, UniProt P06276); test: Inhibition of BuChE (unknown origin) at 0.5 mM using butyrylthiocholine bromide as substrate by Ellman method relative to untreated control
T1 sequence (P06276 whole entry): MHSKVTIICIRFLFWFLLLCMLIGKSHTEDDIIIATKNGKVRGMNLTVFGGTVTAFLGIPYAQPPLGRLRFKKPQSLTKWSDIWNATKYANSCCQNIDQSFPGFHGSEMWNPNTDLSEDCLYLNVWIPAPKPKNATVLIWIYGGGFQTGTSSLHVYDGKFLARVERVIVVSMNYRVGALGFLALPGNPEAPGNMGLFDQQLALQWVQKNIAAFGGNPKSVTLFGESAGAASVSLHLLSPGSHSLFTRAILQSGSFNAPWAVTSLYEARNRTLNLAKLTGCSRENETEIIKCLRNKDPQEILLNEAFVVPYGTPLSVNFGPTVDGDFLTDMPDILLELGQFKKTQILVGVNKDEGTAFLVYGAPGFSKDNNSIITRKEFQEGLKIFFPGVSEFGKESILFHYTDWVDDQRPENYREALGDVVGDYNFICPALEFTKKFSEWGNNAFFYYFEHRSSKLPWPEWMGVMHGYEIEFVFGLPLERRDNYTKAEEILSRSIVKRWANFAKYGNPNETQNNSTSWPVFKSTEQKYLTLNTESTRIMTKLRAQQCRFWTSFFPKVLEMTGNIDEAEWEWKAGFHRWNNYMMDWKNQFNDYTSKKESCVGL

Cholinesterase [4] = molecular target: T1, Cholinesterase; test: Inhibition of BuChE (unknown origin) using butyrylthiocholine bromide as substrate by Ellman method
[5] = molecular target: T2, Polyunsaturated fatty acid 5-lipoxygenase (Homo sapiens) (UniProt P09917); test: Inhibition of 5-LOX (unknown origin) relative to untreated control; conditions: concentration not given here
T2 sequence (whole entry): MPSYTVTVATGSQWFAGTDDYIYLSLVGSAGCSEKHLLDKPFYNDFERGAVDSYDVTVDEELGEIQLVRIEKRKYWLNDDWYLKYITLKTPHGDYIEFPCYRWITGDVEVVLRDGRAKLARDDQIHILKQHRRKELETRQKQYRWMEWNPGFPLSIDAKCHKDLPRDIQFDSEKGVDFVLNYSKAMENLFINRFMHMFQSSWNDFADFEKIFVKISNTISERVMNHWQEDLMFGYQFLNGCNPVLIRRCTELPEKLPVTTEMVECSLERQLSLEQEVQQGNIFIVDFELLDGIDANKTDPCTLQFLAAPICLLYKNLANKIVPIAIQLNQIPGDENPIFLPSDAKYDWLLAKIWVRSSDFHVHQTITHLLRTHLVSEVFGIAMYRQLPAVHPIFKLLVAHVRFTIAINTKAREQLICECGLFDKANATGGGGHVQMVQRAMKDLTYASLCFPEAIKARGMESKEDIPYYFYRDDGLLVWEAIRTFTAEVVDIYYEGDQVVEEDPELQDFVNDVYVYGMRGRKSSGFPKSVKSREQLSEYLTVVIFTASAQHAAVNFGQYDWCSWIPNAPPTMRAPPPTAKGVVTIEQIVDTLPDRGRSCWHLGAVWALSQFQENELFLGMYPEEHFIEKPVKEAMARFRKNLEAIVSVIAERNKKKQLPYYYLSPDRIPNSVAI

Rattus norvegicus [6] = test: Anti-inflammatory activity in Wistar rat assessed as inhibition of kaolin paw edema at 50 mg/kg, po dosed 1 hr before kaolin injection and measured 4 hrs after kaolin injection relative to untreated control; assay type: functional
Acetylcholinesterase [7] = molecular target: T3, Acetylcholinesterase (Homo sapiens, UniProt P22303); test: Inhibition of AChE (unknown origin) at 0.5 mM using […] as substrate by Ellman method relative to untreated control
T3 sequence (P22303 whole entry): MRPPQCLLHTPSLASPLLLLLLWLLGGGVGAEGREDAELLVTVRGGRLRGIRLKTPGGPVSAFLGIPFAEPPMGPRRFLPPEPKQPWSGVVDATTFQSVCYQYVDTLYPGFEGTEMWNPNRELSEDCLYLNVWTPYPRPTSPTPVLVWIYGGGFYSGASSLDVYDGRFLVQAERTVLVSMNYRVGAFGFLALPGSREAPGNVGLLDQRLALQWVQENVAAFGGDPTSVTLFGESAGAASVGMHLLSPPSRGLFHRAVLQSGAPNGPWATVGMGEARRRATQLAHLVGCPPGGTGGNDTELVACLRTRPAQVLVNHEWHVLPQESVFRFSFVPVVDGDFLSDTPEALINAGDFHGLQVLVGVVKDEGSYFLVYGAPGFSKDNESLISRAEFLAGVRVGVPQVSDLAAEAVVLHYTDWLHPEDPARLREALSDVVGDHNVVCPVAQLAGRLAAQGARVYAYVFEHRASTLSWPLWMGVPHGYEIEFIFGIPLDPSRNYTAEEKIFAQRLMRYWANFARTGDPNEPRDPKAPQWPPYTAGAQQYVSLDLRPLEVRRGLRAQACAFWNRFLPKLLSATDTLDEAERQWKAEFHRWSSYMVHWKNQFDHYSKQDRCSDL

[8] = Toxicity in orally dosed Wistar rat monitored every hour for 12 hrs and then every day for 14 days; assay type: organism-based; conditions: in vivo, po
Acetylcholinesterase [9] = molecular target: T3, Acetylcholinesterase; test: Inhibition of AChE (unknown origin) using […] as substrate by Ellman method
Rattus norvegicus [10] = test: Anti-ulcer activity in Wistar rat model of ethanol-induced gastric ulcer model assessed as ulcer area at 50 mg/kg, po dosed 1 hr before ethanol injection relative to untreated control; assay type: functional

Compound	IC50 [1]	inhibition [2]	inhibition (Cholinesterase [3])	IC50 (Cholinesterase [4])	inhibition [5]	inhibition in vivo at 50 mg/kg (Rattus norvegicus [6])	inhibition (Acetylcholinesterase [7])	LD50 at 14 days [8]	IC50 (Acetylcholinesterase [9])	Activity (Rattus norvegicus [10])
O=c1c(O)c(-c2ccc(O)c(O)c2)oc2cc(O)cc(O)c12 [QUERCETIN]	16.96 µmol	93.2%	–	–	–	–	–	–	–	–
CC(C)Cc1ccc(C(C)C(=O)O)cc1 (stereo not given) [IBUPROFEN]	< 500 µmol	11.3%	35.5%	< 600 µmol	42.5%	45%	61.2%	630 mg/kg	235.11 µmol	35%
Nc1ccc(S(N)(=O)=O)cc1 [SULFANILAMIDE]	–	–	5.19%	138.79 µmol	–	10%	10.2%	–	–	10%
CC(C)Cc1ccc(C(C)C(=O)NS(=O)(=O)c2ccc(N)cc2)cc1 (stereo not given)	–	–	65.9%	214.41 µmol	48.4%	75%	47.2%	4050 mg/kg	< 600 µmol	8%
